Assay results from US20060019885A1, “Modified bryodin 1 with reduced immunogenicity” (priority 2002, published 2006).

System: peripheral blood mononuclear cells (PBMCs), containing antigen presenting cells (APCs) and T-cells
Experiment: naïve human T-cell proliferation assay (3H-thymidine incorporation, stimulation index)
Assay type: cell-based
Conditions: for predicted ranking of the most immunodominant regions: from numbers of responding naïve donors and crystallographic B-factor analysis; for number of donor samples reactive / percent of donor samples reactive: of 21 naïve donor PBMC samples, positive response SI>2
Text: This approach has proven to be a particularly effective method and is disclosed herein as an embodiment of the invention. The method can be applied to test part of the sequence, for example a sub-set of bryodin 1 peptides such as all or some of those listed in FIG. 1; or the method may be applied to test entire sequence. In the present studies, the method has involved the testing of overlapping bryodin 1 derived peptide sequences in a scheme so as to scan and test the entire bryodin 1 sequence (including peptides representing the N-terminal pro-pepeptide). The synthetic peptides are tested for their ability to evoke a proliferative response in human T-cell cultured in vitro. Where this type of approach is conducted using naïve human T-cells taken from healthy donors, the inventors have established that in the operation of such an assay, a stimulation index equal to or greater than 2.0 is a useful measure of induced proliferation. The stimulation index is conventionally derived by division of the proliferation score (e.g. counts per minute of radioactivity if using ^3H-thymidine incorporation) measured to the test peptide by the score measured in cells not contacted with a test peptide.
The interaction between MHC, peptide and T-cell receptor (TCR) provides the structural basis for the antigen specificity of T-cell recognition. T-cell proliferation assays test the binding of peptides to MHC and the recognition of MHC/peptide complexes by the TCR. In vitro T-cell proliferation assays of the present example, involve the stimulation of peripheral blood mononuclear cells (PBMCs), containing antigen presenting cells (APCs) and T-cells. Stimulation is conducted in vitro using synthetic peptide antigens, and in some experiments whole protein antigen. Stimulated T-cell proliferation is measured using ^3H-thymidine (^3H-Thy) and the presence of incorporated ^3H-Thy assessed using scintillation counting of washed fixed cells.
Buffy coats from human blood stored for less than 12 hours were obtained from the National Blood Service (Addenbrooks Hospital, Cambridge, UK). Ficoll-paque was obtained from Amersham Pharmacia Biotech (Amersham, UK). Serum free AIM V media for the culture of primary human lymphocytes and containing L-glutamine, 50 μg/ml streptomycin, 10 μg/ml gentomycin and 0.1% human serum albumin was from Gibco-BRL (Paisley, UK). Synthetic peptides were obtained from Eurosequence (Groningen, The Netherlands) and Babraham Technix (Cambridge, UK).
Erythrocytes and leukocytes were separated from plasma and platelets by gentle centrifugation of buffy coats. The top phase (containing plasma and platelets) was removed and discarded. Erythrocytes and leukocytes were diluted 1:1 in phosphate buffered saline (PBS) before layering onto 15 ml ficoll-paque (Amersham Pharmacia, Amersham UK). Centrifugation was done according to the manufacturers recommended conditions and PBMCs were harvested from the serum+PBS/ficoll paque interface. PBMCs were mixed with PBS (1:1) and collected by centrifugation. The supernatant was removed and discarded and the PBMC pellet resuspended in 50 ml PBS. Cells were again pelleted by centrifugation and the PBS supernatant discarded. Cells were resuspended using 50 ml AIM V media and at this point counted and viability assessed using trypan blue dye exclusion. Cells were again collected by centrifugation and the supernatant discarded. Cells were resuspended for cryogenic storage at a density of 3×10^7 per ml. The storage medium was 90% (v/v) heat inactivated AB human serum (Sigma, Poole, UK) and 10% (v/v) DMSO (Sigma, Poole, UK). Cells were transferred to a regulated freezing container (Sigma) and placed at −70° C. overnight. When required for use, cells were thawed rapidly in a water bath at 37° C. before transferring to 10 ml pre-warmed AIM V medium.
PBMC were stimulated with protein and peptide antigens in a 96 well flat bottom plate at a density of 2×10^5 PBMC per well. […]

Sequence	predicted ranking of the most immunodominant regions	number of donor samples reactive [donor samples]	percent of donor samples reactive
ATISLENNWSALSKQIQIAST [R5]	most immunogenic	4	19%
RYTLLHLTNYADETISVAVDV [R1]	most immunogenic	6	over 28%
ITTLYYYTASSAASALLVLIQSTAESA [R4]		5	24%
ATEAAKFVFKDAKKK [R2]	relatively less immunogenic	3	14%
ERLQTAAGKIRENIPLGLPALDSA [R3]		3	14%
